# Counter-ions that a name gives are not always drawn. Like-named read-outs stand apart in the source and are kept apart here.
# Columns and labels:
# Stap. Aureus CMX 553 = assay: Second in vitro antibacterial test, MIC (BHIB); format: cell-based; details: Staphylococcus aureus, Brain Heart Infusion Broth (BHIB), read-out: MIC
# Strep. pyogenes EES 61 = assay: Second in vitro antibacterial test, MIC (BHIB); format: cell-based; details: Streptococcus pyogenes, EES61, Brain Heart Infusion Broth (BHIB), read-out: MIC
# E.Coli Juhl = assay: Second in vitro antibacterial test, MIC (BHIB); format: cell-based; details: Escherichia coli, Brain Heart Infusion Broth (BHIB), read-out: MIC
# Ps.Aeruginosa A5007 = assay: Second in vitro antibacterial test, MIC (BHIB); format: cell-based; details: Pseudomonas aeruginosa, Brain Heart Infusion Broth (BHIB), read-out: MIC
# STR[…] 508 = assay: In vitro antibacterial activity, agar dilution MIC (BHIA); format: cell-based; details: Streptococcus agalactiae, 18 h
# Source text: (§1) The MIC results are in ug/ml. TABLE VII
# [1] = tested on: STREPTOCOCCUS BOVIS A5169; assay: as above; format: cell-based; details: Streptococcus equinus, 18 h
# STR[…] 2548 INDUC = assay: as above; format: cell-based; details: Streptococcus pyogenes, 18 h
# ESCHERICHIA COLI JUHL = assay: as above; format: cell-based; details: 18 h
# ESCHERICHIA COLI SS = assay: as above; format: cell-based; details: Brain Heart Infusion Agar (BHIA), 36° C, 18 h, strain SS
# ESCHERICHIA COLI DC-2 = assay: as above; format: cell-based; details: 18 h
# [2] = tested on: ENTEROBACTER AEROGENES ATCC 13048; assay: as above; format: cell-based; details: Klebsiella aerogenes
# [3] = tested on: KLEBSIELLA PNEUMONIAE ATCC 8045; assay: as above; format: cell-based
# [4] = tested on: PSEUDOMONAS AERUGINOSA BMH10; assay: as above; format: cell-based; details: 18 h
# ACINETOBACTER SP CMX 669 = assay: as above; format: cell-based; details: 18 h
# [5] = Plasma level in dog after oral dose; format: in vivo; details: 10 mg/kg, 10 mg equivalent/kg oral dose, HPLC
# Source text: The plasma samples were collected and determined by the HPLC analysis.
# EN[…] ATCC 8043 = assay: In vitro antibacterial activity, agar dilution MIC (BHIA); format: cell-based; details: Enterococcus faecium, ATCC8043, 18 h
# Source text: as §1
# M[…] ATCC 4698 = assay: as above; format: cell-based; details: Micrococcus luteus, ATCC4698, 18 h
# Source text: as §1
# M[…] ATCC 9341 = assay: as above; format: cell-based; details: Micrococcus luteus, ATCC9341, 18 h
# Source text: as §1
# P[…] 296I = assay: as above; format: cell-based; details: Burkholderia cepacia, 18 h
# Source text: as §1
# STR[…] EES61 = assay: as above; format: cell-based; details: Streptococcus pyogenes, 18 h
# Source text: as §1
# [6] = tested on: STREPTOCOCCUS PYOGENES 930 CONST; assay: as above; format: cell-based; details: 18 h
# ESCHERICHIA COLI H560 = assay: as above; format: cell-based; details: 18 h
# ESCHERICHIA COLI KNK 437 = assay: as above; format: cell-based; details: Brain Heart Infusion Agar (BHIA), 36° C, 18 h, strain KNK 437
# [7] = tested on: PROVIDENCIA STUARTII CMX 640; assay: as above; format: cell-based; details: 18 h
# [8] = tested on: PSEUDOMONAS AERUGINOSA K799/61; assay: as above; format: cell-based; details: Brain Heart Infusion Agar (BHIA), 36° C, 18 h, strain K799/61
# [9] = tested on: PSEUDOMONAS AERUGINOSA A5007; assay: as above; format: cell-based; details: Brain Heart Infusion Agar (BHIA), 36° C, 18 h, strain A5007
# Source text: as §1
# [10] = tested on: PSEUDOMONAS AERUGINOSA K799/WT; assay: as above; format: cell-based; details: Brain Heart Infusion Agar (BHIA), 36° C, 18 h, strain K799/WT
# Source text: as §1
# [11] = Brain Heart Infusion Agar (BHIA), 36° C, strain JUHL, read-out: MIC
# [12] = ATCC13048, Brain Heart Infusion Agar (BHIA), 36° C, 18 h, strain ATCC 13048, read-out: MIC
# [13] = ATCC8045, Brain Heart Infusion Agar (BHIA), 36° C, 18 h, strain ATCC 8045, read-out: MIC
# [14] = Brain Heart Infusion Agar (BHIA), 36° C, strain BMH10, read-out: MIC
# [15] = Brain Heart Infusion Agar (BHIA), 36° C, strain CMX 669, read-out: MIC
# [16] = Brain Heart Infusion Agar (BHIA), 36° C, strain A5169, read-out: MIC
# [17] = Brain Heart Infusion Agar (BHIA), 36° C, strain CMX 640, read-out: MIC
SMILES,MIC (Stap. Aureus CMX 553),MIC (Strep. pyogenes EES 61),MIC (E.Coli Juhl),MIC (Ps.Aeruginosa A5007),solubility (physchem; pH 7.4),solubility (physchem; water),MIC (STR[…] 508),MIC (STR[…] 2548 INDUC),MIC (ESCHERICHIA COLI SS),MIC (ESCHERICHIA COLI DC-2),"MIC [2, 12]","MIC [3, 13]","MIC [4, 14]",MIC (EN[…] ATCC 8043),MIC (M[…] ATCC 4698),MIC (M[…] ATCC 9341),MIC (P[…] 296I),MIC (STR[…] EES61),MIC (ESCHERICHIA COLI KNK 437),MIC [8],other results
CCCC(N)C(=O)NC1CCN(c2nc3c(cc2F)c(=O)c(C(=O)O)cn3-c2ccc(F)cc2)C1 (centres unmarked) [Example 26i],1.56 µg/mL,1.56 µg/mL,0.39 µg/mL,6.2 µg/mL,240 µg/mL,> 9000 µg/mL,–,–,–,–,–,–,–,–,–,–,–,–,–,–,–
"NC1CCN(c2nc3c(cc2F)c(=O)c(C(=O)O)cn3-c2ccc(F)cc2F)C1 (centres unmarked) [tosufloxacin, 7-(3-amino-1-pyrrolidinyl)-6-fluoro,1-(2,4-difluorophenyl)-1,4-dihydro-4-oxo-1,8-naphthyridine-3-carboxylic acid, reference compound]",–,–,–,–,10 µg/mL,650 µg/mL,0.39 µg/mL,0.1 µg/mL,0.005 µg/mL,0.39 µg/mL,0.05 µg/mL,0.02 µg/mL,0.1 µg/mL,–,–,–,–,–,–,–,MIC [1]: 0.39 µg/mL; MIC (ESCHERICHIA COLI JUHL; [11]): 0.02 µg/mL; MIC (ACINETOBACTER SP CMX 669; [15]): 0.1 µg/mL; AUC(0-t) at 32 h [5]: 5300 ng·h/mL; Cmax ([5]; read-out: C max (range)): 670 ng/mL
"N[C@@H](Cc1cnc[nH]1)C(=O)NC1CCN(c2nc3c(cc2F)c(=O)c(C(=O)O)cn3-c2ccc(F)cc2F)C1 (stereo partly drawn) [Example 44c, 7-[3-L-Histidine-Amino-1-Pyrrolidinyl)-1-(2,4-Difluorophenyl)-6-Fluoro-1,4-Dihydro-4-oxo-1,8-Naphthyridine-3-Carboxylic Acid Dihydrochloride]",16 µg/mL,32 µg/mL,64 µg/mL,> 64 µg/mL,300 µg/mL,> 100000 µg/mL,–,–,–,–,–,–,–,–,–,–,–,–,–,–,–
"NCC(=O)N[C@@H](Cc1ccccc1)C(=O)NC1CCN(c2nc3c(cc2F)c(=O)c(C(=O)O)cn3-c2ccc(F)cc2F)C1 (stereo partly drawn) [Example 1b, 7-[(3-Gly-L-Phe-amino)-1-pyrrolidinyl]-1-(2,4-difluorophenyl)-6-fluoro-1,4-dihydro-4-oxo-1,8-naphthyridine-3-carboxylic acid hydrochloride]",–,–,–,–,1040 µg/mL,> 98000 µg/mL,1.56 µg/mL,0.78 µg/mL,0.2 µg/mL,100 µg/mL,12.5 µg/mL,12.5 µg/mL,25 µg/mL,1.56 µg/mL,0.78 µg/mL,6.25 µg/mL,50 µg/mL,1.56 µg/mL,25 µg/mL,12.5 µg/mL,MIC [1]: 1.56 µg/mL; MIC [6]: 0.78 µg/mL; MIC (ESCHERICHIA COLI JUHL; [11]): 3.12 µg/mL; MIC (ESCHERICHIA COLI H560): 1.56 µg/mL; MIC [7]: 100 µg/mL; MIC (ACINETOBACTER SP CMX 669; [15]): 12.5 µg/mL
NC(Cc1ccc(O)cc1)C(=O)NC1CCN(c2nc3c(cc2F)c(=O)c(C(=O)O)cn3-c2ccc(F)cc2F)C1 (centres unmarked) [Example 13],12.5 µg/mL,12.5 µg/mL,12.5 µg/mL,50 µg/mL,60 µg/mL,> 90000 µg/mL,–,–,–,–,–,–,–,–,–,–,–,–,–,–,–
NC(Cc1ccccc1)C(=O)NC1CCN(c2nc3c(cc2F)c(=O)c(C(=O)O)cn3-c2ccc(F)cc2F)C1 (centres unmarked) [Example 5],–,–,–,–,340 µg/mL,> 101000 µg/mL,3.1 µg/mL,0.78 µg/mL,0.1 µg/mL,50 µg/mL,–,1.56 µg/mL,–,3.1 µg/mL,12.5 µg/mL,25 µg/mL,> 100 µg/mL,3.1 µg/mL,100 µg/mL,1.56 µg/mL,"MIC [9]: 50 µg/mL; MIC [10]: 25 µg/mL; MIC [1, 16]: 6.2 µg/mL; MIC ([6]; Brain Heart Infusion Agar (BHIA), 36° C, strain 930 CONST, read-out: MIC): 1.56 µg/mL; MIC (ESCHERICHIA COLI JUHL): 3.1 µg/mL; MIC (ESCHERICHIA COLI H560): 3.1 µg/mL; MIC ([2]; ATCC13048, 18 h): 12.5 µg/mL; MIC [7, 17]: > 100 µg/mL; MIC [4]: 25 µg/mL; MIC (ACINETOBACTER SP CMX 669): 12.5 µg/mL"
"CCC[C@H](NC(=O)[C@@H](N)CCC)C(=O)NC1CCN(c2nc3c(cc2F)c(=O)c(C(=O)O)cn3-c2ccc(F)cc2F)C1 (stereo partly drawn) [Example 3b, 7-(3-L-Norvaline-L-Norvalineamino-1-pyrrolidinyl)-1-(2,4-difluorophenyl)-6-fluoro-1,4-dihydro-4-oxo-1,8-naphthyridine-3-carboxylic acid hydrochloride]",12.5 µg/mL,12.5 µg/mL,25 µg/mL,50 µg/mL,680 µg/mL,> 40000 µg/mL,–,–,–,–,–,–,–,–,–,–,–,–,–,–,–
"CS(=O)(=O)CC[C@H](N)C(=O)NC1CCN(c2nc3c(cc2F)c(=O)c(C(=O)O)cn3-c2ccc(F)cc2F)C1 (stereo partly drawn) [Example 31c, 7-[3-L-Methioninesulfone-Amino-1-Pyrrolidinyl]-1-(2,4-Difluorophenyl)-6-Fluoro-1,4-Dihydro-4-Oxo 1,8-Naphthyridine-3-Carboxylic Acid Hydrochloride]",25 µg/mL,25 µg/mL,12.5 µg/mL,> 100 µg/mL,30 µg/mL,> 35000 µg/mL,–,–,–,–,–,–,–,–,–,–,–,–,–,–,–
CC(N)C(=O)NC(C)C(=O)NC1CCN(c2nc3c(cc2F)c(=O)c(C(=O)O)cn3-c2ccc(F)cc2F)C1 (centres unmarked) [Example 15],–,–,–,–,1070 µg/mL,> 70000 µg/mL,12.5 µg/mL,12.5 µg/mL,0.39 µg/mL,–,25 µg/mL,–,100 µg/mL,50 µg/mL,100 µg/mL,> 100 µg/mL,50 µg/mL,12.5 µg/mL,50 µg/mL,3.1 µg/mL,"MIC [10]: 50 µg/mL; MIC [1, 16]: 50 µg/mL; MIC [6]: 12.5 µg/mL; MIC (ESCHERICHIA COLI JUHL): 12.5 µg/mL; MIC (ESCHERICHIA COLI DC-2; Brain Heart Infusion Agar (BHIA), 36° C, strain DC-2, read-out: MIC): 100 µg/mL; MIC (ESCHERICHIA COLI H560; Brain Heart Infusion Agar (BHIA), 36° C, strain H560, read-out: MIC): 6.2 µg/mL; MIC ([3]; ATCC8045, 18 h): 12.5 µg/mL; MIC [7, 17]: 100 µg/mL; MIC (ACINETOBACTER SP CMX 669): 12.5 µg/mL"
CC(C)CC(N)C(=O)NC1CCN(c2nc3c(cc2F)c(=O)c(C(=O)O)cn3-c2ccc(F)cc2F)C1 (centres unmarked) [Example 21],1.56 µg/mL,6.2 µg/mL,1.56 µg/mL,25 µg/mL,140 µg/mL,> 35000 µg/mL,–,–,–,–,–,–,–,–,–,–,–,–,–,–,–
